Laboratory results taken from PubChem BioAssay (NCI).
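At the GI50, growth is halved. Definition used: TGI = concentration required for complete inhibition of growth.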

How the values were obtained:
Assay in all cases: NCI tumour cell line growth inhibition, 384-well format
MCF7 breast = system: MCF7 breast
NCI-H322M lung = system: NCI-H322M lung
BT-549 breast = system: BT-549 breast
DU-145 prostate = system: DU-145 prostate
SNB-75 CNS = system: SNB-75 CNS
NCI-H23 lung = system: NCI-H23 lung
SK-MEL-28 melanoma = system: SK-MEL-28 melanoma
A549 NSCLC = system: A549 NSCLC
NCI-H460 NSCLC = system: NCI-H460 NSCLC
MOLT-4 leukemia = system: MOLT-4 leukemia
IGROV1 ovarian = system: IGROV1 ovarian
SF-268 CNS = system: SF-268 CNS
T-47D breast = system: T-47D breast
A498 renal = system: A498 renal
OVCAR-4 ovarian = system: OVCAR-4 ovarian
HCT-15 colon = system: HCT-15 colon
SNB-19 CNS = system: SNB-19 CNS
K-562 leukemia = system: K-562 leukemia
MDA-MB-435 melanoma = system: MDA-MB-435 melanoma
CCRF-CEM leukemia = system: CCRF-CEM leukemia
SW-620 colon = system: SW-620 colon
SN12C renal = system: SN12C renal
NCI/ADR-RES ovarian = system: NCI/ADR-RES ovarian
UACC-257 melanoma = system: UACC-257 melanoma
RXF 393 renal = system: RXF 393 renal
OVCAR-5 ovarian = system: OVCAR-5 ovarian
LOX IMVI melanoma = system: LOX IMVI melanoma
U251 glioblastoma = system: U251 glioblastoma
NCI-H226 lung = system: NCI-H226 lung
SK-OV-3 ovarian = system: SK-OV-3 ovarian
ACHN renal = system: ACHN renal
HT29 colon = system: HT29 colon
OVCAR-8 ovarian = system: OVCAR-8 ovarian
EKVX NSCLC = system: EKVX NSCLC
HOP-92 NSCLC = system: HOP-92 NSCLC
HCT-116 colon = system: HCT-116 colon
UO-31 renal = system: UO-31 renal
SF-295 CNS = system: SF-295 CNS
NCI-H522 lung = system: NCI-H522 lung
PC-3 prostate = system: PC-3 prostate
OVCAR-3 ovarian = system: OVCAR-3 ovarian
COLO 205 colon = system: COLO 205 colon
MDA-MB-468 breast = system: MDA-MB-468 breast
KM12 colon = system: KM12 colon
MDA-MB-231 breast = system: MDA-MB-231 breast
HS 578T breast = system: HS 578T breast
SF-539 CNS = system: SF-539 CNS
786-0 renal = system: 786-0 renal
UACC-62 melanoma = system: UACC-62 melanoma
RPMI-8226 leukemia = system: RPMI-8226 leukemia
CAKI-1 renal = system: CAKI-1 renal
M14 melanoma = system: M14 melanoma
SK-MEL-5 melanoma = system: SK-MEL-5 melanoma
HCC-2998 colon = system: HCC-2998 colon
HL-60(TB) leukemia = system: HL-60(TB) leukemia
TK-10 renal = system: TK-10 renal
HOP-62 NSCLC = system: HOP-62 NSCLC
MALME-3M melanoma = system: MALME-3M melanoma

Q: With `O=C(Nc1ccc(-c2ccnc(Nc3ccc(N4CCOCC4)cc3)n2)cc1)C1CCCN1` (stereo unspecified) as the compound, how does the GI50 (MCF7 breast) read?
A: 4.63 µM

Q: And the TGI (MCF7 breast)?
A: 17.6 µM

Q: What about the GI50 (NCI-H322M lung) of the same compound?
A: 10.4 µM

Q: What about the TGI (NCI-H322M lung) of the same compound?
A: 22.8 µM

Q: And the GI50 (BT-549 breast)?
A: 3.78 µM

Q: And the TGI (BT-549 breast)?
A: 14.1 µM

Q: And the GI50 (DU-145 prostate)?
A: 4.54 µM

Q: And the TGI (DU-145 prostate)?
A: 15.4 µM

Q: And the GI50 (SNB-75 CNS)?
A: 4.17 µM

Q: What about the TGI (SNB-75 CNS) of the same compound?
A: 15.3 µM

Q: And the GI50 (NCI-H23 lung)?
A: 13.7 µM

Q: What about the TGI (NCI-H23 lung) of the same compound?
A: 27.1 µM

Q: And the GI50 (SK-MEL-28 melanoma)?
A: 7.45 µM

Q: What about the TGI (SK-MEL-28 melanoma) of the same compound?
A: 20.5 µM

Q: What about the GI50 (A549 NSCLC) of the same compound?
A: 4.69 µM

Q: What about the TGI (A549 NSCLC) of the same compound?
A: 17.8 µM

Q: And the GI50 (NCI-H460 NSCLC)?
A: 1.65 µM

Q: What about the TGI (NCI-H460 NSCLC) of the same compound?
A: 10.9 µM

Q: What about the GI50 (MOLT-4 leukemia) of the same compound?
A: 0.439 µM

Q: What about the TGI (MOLT-4 leukemia) of the same compound?
A: 1.56 µM

Q: And the GI50 (IGROV1 ovarian)?
A: 3.52 µM

Q: What about the TGI (IGROV1 ovarian) of the same compound?
A: 16.7 µM

Q: What about the GI50 (SF-268 CNS) of the same compound?
A: 0.204 µM

Q: And the TGI (SF-268 CNS)?
A: 0.857 µM

Q: What about the GI50 (T-47D breast) of the same compound?
A: 5.28 µM

Q: What about the TGI (T-47D breast) of the same compound?
A: 15.8 µM

Q: What about the GI50 (A498 renal) of the same compound?
A: 6.48 µM

Q: And the TGI (A498 renal)?
A: 18.9 µM

Q: And the GI50 (OVCAR-4 ovarian)?
A: 14.5 µM

Q: What about the TGI (OVCAR-4 ovarian) of the same compound?
A: 28.7 µM

Q: What about the GI50 (HCT-15 colon) of the same compound?
A: 1.25 µM

Q: And the TGI (HCT-15 colon)?
A: 15 µM

Q: What about the GI50 (SNB-19 CNS) of the same compound?
A: 11.4 µM

Q: And the TGI (SNB-19 CNS)?
A: 26.6 µM

Q: And the GI50 (K-562 leukemia)?
A: 1.39 µM

Q: And the TGI (K-562 leukemia)?
A: 10.9 µM

Q: What about the GI50 (MDA-MB-435 melanoma) of the same compound?
A: 7.37 µM

Q: And the TGI (MDA-MB-435 melanoma)?
A: 19.8 µM

Q: What about the GI50 (CCRF-CEM leukemia) of the same compound?
A: 1.79 µM

Q: What about the TGI (CCRF-CEM leukemia) of the same compound?
A: 10.1 µM

Q: What about the GI50 (SW-620 colon) of the same compound?
A: 5.25 µM

Q: And the TGI (SW-620 colon)?
A: 16 µM

Q: What about the GI50 (SN12C renal) of the same compound?
A: 3.6 µM

Q: What about the TGI (SN12C renal) of the same compound?
A: 17 µM

Q: What about the GI50 (NCI/ADR-RES ovarian) of the same compound?
A: 7.15 µM

Q: And the TGI (NCI/ADR-RES ovarian)?
A: 21.9 µM

Q: What about the GI50 (UACC-257 melanoma) of the same compound?
A: 2.46 µM

Q: And the TGI (UACC-257 melanoma)?
A: 5.49 µM

Q: What about the GI50 (RXF 393 renal) of the same compound?
A: 1.6 µM

Q: What about the TGI (RXF 393 renal) of the same compound?
A: 12.1 µM

Q: And the GI50 (OVCAR-5 ovarian)?
A: 12.4 µM

Q: And the TGI (OVCAR-5 ovarian)?
A: 25.6 µM

Q: What about the GI50 (LOX IMVI melanoma) of the same compound?
A: 1.74 µM

Q: And the TGI (LOX IMVI melanoma)?
A: 7.69 µM

Q: And the GI50 (U251 glioblastoma)?
A: 3.9 µM

Q: What about the TGI (U251 glioblastoma) of the same compound?
A: 17 µM

Q: And the GI50 (NCI-H226 lung)?
A: 1.24 µM

Q: And the TGI (NCI-H226 lung)?
A: 10.6 µM

Q: What about the GI50 (SK-OV-3 ovarian) of the same compound?
A: 3.29 µM

Q: And the TGI (SK-OV-3 ovarian)?
A: 16.5 µM

Q: What about the GI50 (ACHN renal) of the same compound?
A: 4.76 µM

Q: What about the TGI (ACHN renal) of the same compound?
A: 17.6 µM

Q: And the GI50 (HT29 colon)?
A: 2.22 µM

Q: What about the TGI (HT29 colon) of the same compound?
A: 10.8 µM

Q: And the GI50 (OVCAR-8 ovarian)?
A: 5.11 µM

Q: What about the TGI (OVCAR-8 ovarian) of the same compound?
A: 18.1 µM

Q: What about the GI50 (EKVX NSCLC) of the same compound?
A: 11.9 µM

Q: What about the TGI (EKVX NSCLC) of the same compound?
A: 24.9 µM

Q: What about the GI50 (HOP-92 NSCLC) of the same compound?
A: 4.9 µM

Q: What about the TGI (HOP-92 NSCLC) of the same compound?
A: 20.2 µM

Q: And the GI50 (HCT-116 colon)?
A: 1.5 µM

Q: What about the TGI (HCT-116 colon) of the same compound?
A: 11.6 µM

Q: And the GI50 (UO-31 renal)?
A: 3.96 µM

Q: What about the TGI (UO-31 renal) of the same compound?
A: 15.8 µM

Q: What about the GI50 (SF-295 CNS) of the same compound?
A: 7.63 µM

Q: And the TGI (SF-295 CNS)?
A: 21.3 µM

Q: And the GI50 (NCI-H522 lung)?
A: 2.88 µM

Q: And the TGI (NCI-H522 lung)?
A: 6.72 µM

Q: And the GI50 (PC-3 prostate)?
A: 5.86 µM

Q: What about the TGI (PC-3 prostate) of the same compound?
A: 19.7 µM

Q: What about the GI50 (OVCAR-3 ovarian) of the same compound?
A: 12.8 µM

Q: And the TGI (OVCAR-3 ovarian)?
A: 26.2 µM

Q: And the GI50 (COLO 205 colon)?
A: 2.68 µM

Q: What about the TGI (COLO 205 colon) of the same compound?
A: 17.4 µM

Q: What about the GI50 (MDA-MB-468 breast) of the same compound?
A: 2.02 µM

Q: And the TGI (MDA-MB-468 breast)?
A: 8.28 µM

Q: And the GI50 (KM12 colon)?
A: 8 µM

Q: And the TGI (KM12 colon)?
A: 21.1 µM

Q: What about the GI50 (MDA-MB-231 breast) of the same compound?
A: 0.87 µM

Q: And the TGI (MDA-MB-231 breast)?
A: 17.3 µM

Q: What about the GI50 (HS 578T breast) of the same compound?
A: 4.67 µM

Q: And the TGI (HS 578T breast)?
A: 16.7 µM

Q: And the GI50 (SF-539 CNS)?
A: 3.89 µM

Q: What about the TGI (SF-539 CNS) of the same compound?
A: 15.2 µM

Q: What about the GI50 ([…]-0 renal) of the same compound?
A: 2.82 µM

Q: And the TGI (786-0 renal)?
A: 11.7 µM

Q: What about the GI50 (UACC-62 melanoma) of the same compound?
A: 3.1 µM

Q: What about the TGI (UACC-62 melanoma) of the same compound?
A: 16.8 µM

Q: What about the GI50 (RPMI-8226 leukemia) of the same compound?
A: 1.29 µM

Q: And the TGI (RPMI-8226 leukemia)?
A: 10.5 µM

Q: What about the GI50 (CAKI-1 renal) of the same compound?
A: 4.41 µM

Q: What about the TGI (CAKI-1 renal) of the same compound?
A: 15.6 µM

Q: And the GI50 (M14 melanoma)?
A: 5.63 µM

Q: What about the TGI (M14 melanoma) of the same compound?
A: 18.2 µM

Q: And the GI50 (SK-MEL-5 melanoma)?
A: 0.687 µM

Q: What about the TGI (SK-MEL-5 melanoma) of the same compound?
A: 14.2 µM

Q: And the GI50 (HCC-2998 colon)?
A: 2.46 µM

Q: What about the TGI (HCC-2998 colon) of the same compound?
A: 8.76 µM

Q: What about the GI50 (HL-60(TB) leukemia) of the same compound?
A: 1.56 µM

Q: And the TGI (HL-60(TB) leukemia)?
A: 3.22 µM

Q: What about the GI50 (TK-10 renal) of the same compound?
A: 2.78 µM

Q: What about the TGI (TK-10 renal) of the same compound?
A: 19.2 µM

Q: What about the GI50 (HOP-62 NSCLC) of the same compound?
A: 11.4 µM

Q: And the TGI (HOP-62 NSCLC)?
A: 24.7 µM

Q: And the GI50 (MALME-3M melanoma)?
A: 3.88 µM

Q: What about the TGI (MALME-3M melanoma) of the same compound?
A: 15.4 µM
